pIC50: −log10 of the molar value.
Legend:
[1] = rats; WO 02/087569; cited from earlier work
[2] = rats; WO 02/087569; cited from earlier work; remark: listed apart in the source
[3] = model of multiple sclerosis, Baker 2001; cited from earlier work
[4] = rats; Kathuria 2003; cited from earlier work
[5] = cited from earlier work
[6] = Kathuria 2003; cited from earlier work
[7] = rats; WO 04/033652; cited from earlier work
[8] = target: T1, FAAH (Homo sapiens, UniProt O00519); settings: WO 04/033652; cited from earlier work
T1 sequence (O00519 1-579): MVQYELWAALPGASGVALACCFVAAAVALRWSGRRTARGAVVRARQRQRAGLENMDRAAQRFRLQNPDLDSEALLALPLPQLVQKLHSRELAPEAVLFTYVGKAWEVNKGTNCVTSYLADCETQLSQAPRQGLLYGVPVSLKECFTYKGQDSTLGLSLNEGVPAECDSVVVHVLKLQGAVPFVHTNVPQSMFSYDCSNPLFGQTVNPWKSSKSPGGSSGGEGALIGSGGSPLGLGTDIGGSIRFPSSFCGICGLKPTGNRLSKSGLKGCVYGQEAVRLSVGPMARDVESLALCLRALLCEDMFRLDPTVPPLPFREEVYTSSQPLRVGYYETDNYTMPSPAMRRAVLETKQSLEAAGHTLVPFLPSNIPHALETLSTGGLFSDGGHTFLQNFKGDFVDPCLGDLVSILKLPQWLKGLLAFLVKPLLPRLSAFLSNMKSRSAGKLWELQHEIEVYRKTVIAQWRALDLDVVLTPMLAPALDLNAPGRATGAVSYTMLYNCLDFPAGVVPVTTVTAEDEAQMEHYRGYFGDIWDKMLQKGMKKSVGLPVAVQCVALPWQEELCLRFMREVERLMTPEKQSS

[9] = target: T2, Rat FAAH (Rattus norvegicus, UniProt P97612); assay: Assay Method 2: FAAH assay, 3H-anandamide hydrolysis in cell homogenate; format: biochemical; settings: transfected SK-N-MC cell homogenate, 80 nM 3H-AEA, 1 h rt, > = solubility limit or highest concentration tested
T2 construct: expressed in transfected cells
T2 sequence (P97612 1-579): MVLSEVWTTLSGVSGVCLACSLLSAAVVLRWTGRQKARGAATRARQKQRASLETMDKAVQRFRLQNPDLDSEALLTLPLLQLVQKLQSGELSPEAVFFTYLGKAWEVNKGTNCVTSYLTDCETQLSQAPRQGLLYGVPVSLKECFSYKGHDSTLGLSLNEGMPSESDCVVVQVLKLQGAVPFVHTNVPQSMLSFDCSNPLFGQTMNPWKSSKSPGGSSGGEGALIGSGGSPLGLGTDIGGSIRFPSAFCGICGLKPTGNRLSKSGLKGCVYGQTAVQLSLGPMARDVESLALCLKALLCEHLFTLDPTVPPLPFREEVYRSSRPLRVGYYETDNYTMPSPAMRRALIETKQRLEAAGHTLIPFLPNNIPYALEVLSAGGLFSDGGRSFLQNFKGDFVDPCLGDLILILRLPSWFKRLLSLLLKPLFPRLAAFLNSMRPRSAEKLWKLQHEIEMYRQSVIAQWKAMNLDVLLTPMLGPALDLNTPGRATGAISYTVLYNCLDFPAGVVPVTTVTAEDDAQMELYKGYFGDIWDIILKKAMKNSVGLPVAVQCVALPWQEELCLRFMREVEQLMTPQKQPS
Method in brief: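 Homogenate of SK-N-MC cells stably transfected with rat FAAH cDNA (G418-selected clones) incubated with compound and 80 nM final [3H]-anandamide for 1 h. Released [3H]-ethanolamine separated on activated charcoal filters by centrifugation and counted by scintillation. ">" values mark solubility limit or top concentration tested.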

[10] = target: T1, FAAH; assay: Assay Method 1: FAAH assay, 3H-anandamide hydrolysis in cell homogenate; format: biochemical; set-up: expressed in transfected cells; settings: T84 or transfected SK-N-MC cell homogenate, 80 nM 3H-AEA, 1 h rt, > = solubility limit or highest concentration tested
Method in brief: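 Homogenate of SK-N-MC cells stably transfected with human FAAH, incubated with compound and 80 nM final ³H-anandamide for 1 h at rt. Released ³H-ethanolamine separated from substrate on activated charcoal and counted by scintillation. ">" values reflect solubility limit or top concentration tested.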

Row | Compound | pIC50 [9] | pIC50 [10] | further results
1 | Cc1nc(-c2ccccc2)c(-c2ccccc2)n1CCCCCCNC(=O)Oc1ccccc1F [BMS-1] | – | – | analgesic effect in Chung spinal nerve ligation model of neuropathic pain [1]: analgesic effect; analgesic effect in Hargraves test of acute thermal nociception [2]: analgesic effect
2 | CCCCCCCCCCCCCCCCS(=O)(=O)F [AM374] | – | – | spasticity in CREAE mice [3]: significantly reduce spasticity
3 | NC(=O)c1cccc(-c2cccc(OC(=O)NC3CCCCC3)c2)c1 [URB-597] | – | – | efficacy in zero plus maze model of anxiety [4]: efficacy; analgesic efficacy in rat hot plate test ([5]; rat, Kathuria 2003): analgesic efficacy; analgesic efficacy in rat formalin test [6]: analgesic efficacy
4 | O=C(CCCCCCc1ccccc1)c1ncc(-c2ccccn2)o1 [OL-135] | – | – | analgesic activity in tail emersion test of thermal nociception [7]: analgesic activity; analgesic activity in hot plate test of thermal nociception ([5]; rats, WO 04/033652): analgesic activity; inhibition of FAAH [8]: potent inhibitor of FAAH
5 | O=C(c1ncco1)C1CCN(Cc2ccccc2F)CC1 [Example 32, [1-(2-Fluoro-benzyl)-piperidin-4-yl]-oxazol-2-yl-methanone] | < 5.00 | 5.82 | –
6 | O=C(c1ncco1)C1CCN(Cc2cccc(Oc3ccccc3)c2)CC1 [Example 56, Oxazol-2-yl-[1-(3-phenoxy-benzyl)-piperidin-4-yl]-methanone] | 6.88 | 7.55 | –
7 | O=C(c1ncco1)C1CCN(Cc2ccc3cccc(O)c3n2)CC1 [Example 79, [1-(8-Hydroxy-quinolin-2-ylmethyl)-piperidin-4-yl]-oxazol-2-yl-methanone] | 7.40 | 7.92 | –
8 | O=C(c1ncco1)C1CCN(Cc2cc3cc4c(cc3nc2Cl)OCO4)CC1 [Example 67, [1-(6-Chloro-[1,3]dioxolo[4,5-g]quinolin-7-ylmethyl)-piperidin-4-yl]-oxazol-2-yl-methanone] | < 5.00 | 6.13 | –
9 | O=C(c1ncco1)C1CCN(Cc2ccccc2Br)CC1 [Example 53, [1-(2-Bromo-benzyl)-piperidin-4-yl]-oxazol-2-yl-methanone] | 6.49 | 7.07 | –
10 | COc1ccccc1C(=O)N1CCC(C(=O)c2ncco2)CC1 [Example 8, [1-(2-Methoxy-benzoyl)-piperidin-4-yl]-oxazol-2-yl-methanone] | < 5.00 | < 5.00 | –
11 | O=C(c1ncco1)C1CCN(Cc2ccc(Br)c([N+](=O)[O-])c2)CC1 [Example 26, [1-(4-Bromo-3-nitro-benzyl)-piperidin-4-yl]-oxazol-2-yl-methanone] | 8.05 | 8.52 | –
12 | O=C(c1ncco1)C1CCN(Cc2ccc(Cl)c(Cl)c2)CC1 [Example 44, [1-(3,4-Dichloro-benzyl)-piperidin-4-yl]-oxazol-2-yl-methanone] | 8.30 | 8.30 | –
13 | Cc1cccc(CN2CCC(C(=O)c3ncco3)CC2)c1 [Example 65, [1-(3-Methyl-benzyl)-piperidin-4-yl]-oxazol-2-yl-methanone] | 6.01 | 6.60 | –
14 | O=C(c1ncco1)C1CCN(Cc2ccc(Cl)nc2)CC1 [Example 82, [1-(6-Chloro-pyridin-3-ylmethyl)-piperidin-4-yl]-oxazol-2-yl-methanone] | 6.19 | 6.90 | –
15 | O=C(c1ncco1)C1CCN(Cc2ccc(Br)c(Br)c2)CC1 [Example 87, [1-(3,4-Dibromo-benzyl)-piperidin-4-yl]-oxazol-2-yl-methanone] | 8.70 | 8.70 | –
16 | O=C(c1ncco1)C1CCN(Cc2cccc(OC3CCCCC3)c2)CC1 [Example 22, [1-(3-Cyclohexyloxy-benzyl)-piperidin-4-yl]-oxazol-2-yl-methanone] | 6.10 | 7.92 | –

Row | Compound | pIC50 [9] | pIC50 [10] | further results
17 | CCOc1cccc(CN2CCC(C(=O)c3ncco3)CC2)c1 [Example 29, [1-(3-Ethoxy-benzyl)-piperidin-4-yl]-oxazol-2-yl-methanone] | 5.85 | 6.77 | –
18 | Cn1c(CN2CCC(C(=O)c3ncco3)CC2)cc2ccccc21 [Example 50, [1-(1-Methyl-1H-indol-2-ylmethyl)-piperidin-4-yl]-oxazol-2-yl-methanone] | 8.10 | 8.40 | –
19 | O=C(c1ncco1)C1CCN(Cc2ccc3ccccc3n2)CC1 [Example 84, Oxazol-2-yl-(1-quinolin-2-ylmethyl-piperidin-4-yl)-methanone] | 7.64 | 7.89 | –
20 | O=C(c1ncco1)C1CCN(Cc2cc3ccccc3o2)CC1 [Example 55, (1-Benzofuran-2-ylmethyl-piperidin-4-yl)-oxazol-2-yl-methanone] | 6.98 | 7.92 | –
21 | O=C(c1ncco1)C1CCN(Cc2cccc(OC(F)(F)F)c2)CC1 [Example 37, Oxazol-2-yl-[1-(3-trifluoromethoxy-benzyl)-piperidin-4-yl]-methanone] | 7.40 | 7.60 | –
22 | O=C(c1ncco1)C1CCN(Cc2ccccn2)CC1 [Example 60, Oxazol-2-yl-(1-pyridin-2-ylmethyl-piperidin-4-yl)-methanone] | < 5.00 | 5.89 | –
23 | COc1ccc(CN2CCC(C(=O)c3ncco3)CC2)cn1 [Example 81, [1-(6-Methoxy-pyridin-3-ylmethyl)-piperidin-4-yl]-oxazol-2-yl-methanone] | 5.77 | 6.50 | –
24 | COc1cccc(CN2CCC(C(=O)c3ncco3)CC2)c1 [Example 62, [1-(3-Methoxy-benzyl)-piperidin-4-yl]-oxazol-2-yl-methanone] | 5.89 | 6.61 | –
25 | O=C(c1ncco1)C1CCN(Cc2ccc(Oc3ccccc3)cc2)CC1 [Example 57, Oxazol-2-yl-[1-(4-phenoxy-benzyl)-piperidin-4-yl]-methanone] | 6.27 | 6.68 | –
26 | O=C(c1ncco1)C1CCN(Cc2ccc(Br)cc2)CC1 [Example 51, [1-(4-Bromo-benzyl)-piperidin-4-yl]-oxazol-2-yl-methanone] | 7.48 | 7.92 | –
27 | O=C(c1ncco1)C1CCN(Cc2ccc3cc(Cl)ccc3n2)CC1 [Example 77, [1-(6-Chloro-quinolin-2-ylmethyl)-piperidin-4-yl]-oxazol-2-yl-methanone] | 7.66 | 8.15 | –
28 | O=C(c1ncco1)C1CCN(Cc2ccc(Br)cc2F)CC1 [Example 27, [1-(4-Bromo-2-fluoro-benzyl)-piperidin-4-yl]-oxazol-2-yl-methanone] | 7.12 | 7.96 | –
29 | O=C(c1ncco1)C1CCN(Cc2ccc(F)c(F)c2)CC1 [Example 38, [1-(3,4-Difluoro-benzyl)-piperidin-4-yl]-oxazol-2-yl-methanone] | 7.12 | 7.52 | –
30 | COc1ccc(CN2CCC(C(=O)c3ncco3)CC2)cc1 [Example 61, [1-(4-Methoxy-benzyl)-piperidin-4-yl]-oxazol-2-yl-methanone] | 5.92 | 6.68 | –
31 | Cc1cccc(CN2CCC(C(=O)c3ncco3)CC2)n1 [Example 83, [1-(6-Methyl-pyridin-2-ylmethyl)-piperidin-4-yl]-oxazol-2-yl-methanone] | 5.52 | 6.19 | –
32 | O=C(c1ncco1)C1CCN(Cc2ccc3cc[nH]c3c2)CC1 [Example 45, [1-(1H-Indol-6-ylmethyl)-piperidin-4-yl]-oxazol-2-yl-methanone] | 5.80 | 6.67 | –

— patent publication US20100292266A1, “Oxazolyl Piperidine Modulators of Fatty Acid Amide Hydrolase” (priority 2006, published 2010)
